Reference: patent US20100113465A1, “7-AZASPIRO[3.5]NONANE-7-CARBOXAMIDE COMPOUNDS” (Pfizer Inc., priority 2008, published 2010)

Experiments:
Male Sprague-Dawley Rats = test: In vivo Complete Freund's Adjuvant (CFA) efficacy assay; parameters: species or system rat; key: (+) indicates the test compound was determined to be efficacious at 3 mpk, oral dosing; (−) indicates the test compound was determined to not be efficacious at 3 mpk, oral dosing; details: 3 mpk, oral dosing; inhibition of allodynia (PWT) four hours postdose vs vehicle, p<0.05
Method: For additional information on the CFA efficacy assay, see Jayamanne et al., Brit. J. Pharmacol. 2006, 147, 281-288. Experiments were performed on adult Male Sprague-Dawley Rats (200 g-250 g). Inflammation was induced in the left hindpaw of the rat by an intra-plantar injection of 150 uL Complete Freund's Adjuvant (CFA) (SIGMA F5881). The CFA injection immediately induces local inflammation, paw swelling, and pain that persists for at least two weeks post-injection. Baseline paw withdrawal threshold (PWT) was measured to determine the percent inhibition of allodynia using a set of Von Frey Hairs on day 4 post injection as illustrated by the Dixon Up and Down Method (W. J. Dixon, Ann. Rev. Pharmacol. Toxicol. 1980, 20:441-462). […] Test compound was administered at a concentration of 3 mg/kg (mpk) orally with the dosing vehicle 5% N,N′-Dimethylacetamide (SIGMA D137510) and 95% (40% 2-hydroxypropyl-beta-cyclodextrin in water) (SIGMA H107). Following Dose administration PWT threshold was evaluated again at four hours postdose. The Sprague-Dawley rats used in this assay were purchased from Harlan, 8520 Allison Pointe Blvd., Indianapolis, Ind., 46250, U.S.A. Sprague-Dawley rats are an outbred breed of albino rats first produced by the Sprague Dawley farms in Madison, Wis., U.S.A.
Percent Inhibition of Allodynia was determined by the formula: […]
ΔPWT measurements were averaged for each treatment group and statistical comparisons between groups were made using ANOVA and Dunnett's two-tailed test. […]

rat FAAH = biological target: T1, rat FAAH (Rattus norvegicus, UniProt P97612); test: FAAH assay, rat FAAH enzyme inhibition (kinact/Ki); assay type: biochemical; details: oleamide substrate 50 μM, 30° C., read-out: rFAAH kinact/Ki
T1 construct: made in house; host or cells: E. coli
T1 sequence (P97612 1-579): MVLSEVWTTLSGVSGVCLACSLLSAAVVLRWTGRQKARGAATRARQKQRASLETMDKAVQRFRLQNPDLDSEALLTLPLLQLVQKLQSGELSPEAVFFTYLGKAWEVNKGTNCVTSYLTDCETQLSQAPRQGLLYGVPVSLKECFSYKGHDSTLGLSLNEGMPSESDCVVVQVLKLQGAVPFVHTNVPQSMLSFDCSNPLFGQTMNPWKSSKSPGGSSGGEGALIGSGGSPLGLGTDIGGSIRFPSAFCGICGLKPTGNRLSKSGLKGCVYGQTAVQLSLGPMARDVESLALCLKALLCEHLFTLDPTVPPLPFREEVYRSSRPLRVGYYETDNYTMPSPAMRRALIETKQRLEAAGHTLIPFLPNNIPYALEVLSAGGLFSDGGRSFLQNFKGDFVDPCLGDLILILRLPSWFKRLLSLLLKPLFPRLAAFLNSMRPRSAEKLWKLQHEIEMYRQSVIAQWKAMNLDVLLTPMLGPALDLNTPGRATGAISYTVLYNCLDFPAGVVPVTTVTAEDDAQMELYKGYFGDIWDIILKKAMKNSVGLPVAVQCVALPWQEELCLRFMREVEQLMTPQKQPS
Method: (§1) The FAAH assay was carried out in 384-well clear polystyrene plates (Evergreen Scientific) in a total volume of 50 μl per well in a manner similar to that described by Mileni et al., Proc. Nat. Acad. Sci. 2008, 105, 12820-12824. All percents are by volume. Serial dilutions of compound were initially prepared in 100% DMSO, and then diluted two-fold into HPLC-grade H2O to give 50% DMSO. To each well, was placed the reaction mixture (40 μl) containing 1-4 nM FAAH, 50 mM NaPi, pH 7.4, 3 mM α-ketoglutarate, 0.15 mM NADH, 7.5 U/ml glutamate dehydrogenase, 2 mM ADP, 1 mM EDTA, and 0.1% Triton X-100 (The concentration shown for each component is the final concentration in the assay). To this mixture, was added 5 μl of a compound of Examples 1 to 56 at various concentrations in 50% DMSO (or 5 μl 50% DMSO for controls). This was immediately followed by the addition of 5 μl oleamide (500 μM) dissolved in 75% EtOH/25% DMSO and the reaction mixture was mixed for 1.5 min. The final concentrations of DMSO and EtOH in the assay were each 7.5%. The reactions were incubated at 30° C. and the absorbance at 340 nm was collected over a period of 90 min with readings taken in 30-second intervals using SpectraMax Plus^384 Microplate Spectrophotometer (Molecular Devices, Sunnyvale, Calif.). The human FAAH and rat FAAH used in the assay was prepared as described in the patent application WO 2006/067613 using wild-type E. coli cells transformed in St. Louis, Mo., U.S.A. The purity of the enzyme was greater than 98% based on an analysis by SDS-polyacrylamide gel electrophoresis followed by Coomassie Blue staining.
(§2) Reaction progress curves were corrected for the non-enzymatic oxidation of NADH by subtraction of absorbancies at each time point obtained from control reactions containing no FAAH enzyme. The loss of enzyme activity as a function of time is well-described by the following mathematical equation (1) for a mono-exponential decay: […]
(§3) where At represents the absorbance at time t, A0 represents the absorbance at time zero, and C represents a constant. Observed rates of enzyme inactivation (kobs) were determined from the non-linear reaction progress curves by fitting the corrected absorbancies to an equation for a mono-exponential decay using the third-party Microsoft Excel plug-in, XLfit (IDBS Limited). Secondary plots of kobs vs. inhibitor concentration were prepared from kobs values obtained from progress curves. Second-order rates for enzyme inactivation, expressed as kinact/Ki (M^−1s^−1), were calculated from the slopes from linear regression analysis of the secondary plot of kobs vs. inhibitor concentration as defined in following equation (2), where [I]<<Ki:
(§4) The concentration of substrate in the assay was equal to the Km for oleamide of 50 μM. Therefore, reported kinact/Ki values are obtained by multiplying resulting slopes by a factor of two (i.e. slope=kinact/(Ki*2)).

human FAAH = biological target: T2, human FAAH (Homo sapiens, UniProt O00519); test: FAAH assay, human FAAH enzyme inhibition (kinact/Ki); assay type: biochemical; details: oleamide substrate 50 μM, 30° C., read-out: hFAAH kinact/Ki
T2 construct: made in house; host or cells: E. coli
T2 sequence (O00519 1-579): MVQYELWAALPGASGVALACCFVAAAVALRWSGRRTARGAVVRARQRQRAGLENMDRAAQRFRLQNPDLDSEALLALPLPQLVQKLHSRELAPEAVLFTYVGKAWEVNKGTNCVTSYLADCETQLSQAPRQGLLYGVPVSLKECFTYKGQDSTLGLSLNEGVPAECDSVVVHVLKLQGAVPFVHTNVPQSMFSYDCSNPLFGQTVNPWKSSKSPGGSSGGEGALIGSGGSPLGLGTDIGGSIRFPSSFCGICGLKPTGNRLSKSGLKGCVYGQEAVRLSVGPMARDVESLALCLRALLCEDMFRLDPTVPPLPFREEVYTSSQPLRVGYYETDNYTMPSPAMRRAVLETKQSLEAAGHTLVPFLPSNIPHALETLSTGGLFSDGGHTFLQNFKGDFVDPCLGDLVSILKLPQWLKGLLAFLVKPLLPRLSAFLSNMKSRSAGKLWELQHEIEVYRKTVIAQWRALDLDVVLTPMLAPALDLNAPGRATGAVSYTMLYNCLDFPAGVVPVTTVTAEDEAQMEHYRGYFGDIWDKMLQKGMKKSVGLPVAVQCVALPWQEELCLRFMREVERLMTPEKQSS
Method: as §1, §2, §3, §4

| kinact/KI (rat FAAH) [M⁻¹ s⁻¹] | kinact/KI (human FAAH) [M⁻¹ s⁻¹] | SMILES | CFA Efficacy (Male Sprague-Dawley Rats) |
| --- | --- | --- | --- |
| 3860 | 2830 | Cc1noc(NC(=O)N2CCC3(CC2)CC(c2cccc(OC(F)(F)F)c2)C3)c1C [Example 4, N-(3,4-dimethylisoxazol-5-yl)-2-[3-(trifluoromethoxy)phenyl]-7-azaspiro[3.5]nonane-7-carboxamide] | (+) |
| 2990 | 3950 | Cc1cc(C2CC3(CCN(C(=O)Nc4onc(C)c4C)CC3)C2)ccc1F [Example 12, N-(3,4-dimethylisoxazol-5-yl)-2-(4-fluoro-3-methylphenyl)-7-azaspiro[3.5]nonane-7-carboxamide] | (+) |
| 3560 | 3940 | Cc1noc(NC(=O)N2CCC3(CC2)CC(c2cccc(Cl)c2)C3)c1C [Example 13, 2-(3-chlorophenyl)-N-(3,4-dimethylisoxazol-5-yl)-7-azaspiro[3.5]nonane-7-carboxamide] | (+) |
| 5820 | 4190 | Cc1noc(NC(=O)N2CCC3(CC2)CC(c2ccc(F)c(Cl)c2)C3)c1C [Example 14, 2-(3-chloro-4-fluorophenyl)-N-(3,4-dimethylisoxazol-5-yl)-7-azaspiro[3.5]nonane-7-carboxamide] | (+) |
| 1730 | 3460 | Cc1noc(NC(=O)N2CCC3(CC2)CC(c2noc(-c4ccc(OC(F)(F)F)cc4)n2)C3)c1C [Example 15, N-(3,4-dimethylisoxazol-5-yl)-2-{5-[4-(trifluoromethoxy)phenyl]-1,2,4-oxadiazol-3-yl}-7-azaspiro[3.5]nonane-7-carboxamide] | (+) |
| 1560 | 2640 | Cc1cc(F)cc(C2CC3(CCN(C(=O)Nc4onc(C)c4C)CC3)C2)c1 [Example 18, N-(3,4-dimethylisoxazol-5-yl)-2-(3-fluoro-5-methylphenyl)-7-azaspiro[3.5]nonane-7-carboxamide] | (−) |
| 1370 | 2350 | Cc1noc(NC(=O)N2CCC3(CC2)CC(c2cccc(F)c2F)C3)c1C [Example 19, 2-(2,3-difluorophenyl)-N-(3,4-dimethylisoxazol-5-yl)-7-azaspiro[3.5]nonane-7-carboxamide] | (+) |
| 3470 | 4550 | Cc1noc(NC(=O)N2CCC3(CC2)CC(c2ccc(Cl)c(Cl)c2)C3)c1C [Example 20, 2-(3,4-dichlorophenyl)-N-(3,4-dimethylisoxazol-5-yl)-7-azaspiro[3.5]nonane-7-carboxamide] | (+) |
| 1510 | 2700 | Cc1noc(NC(=O)N2CCC3(CC2)CC(c2cc(Cl)ccc2F)C3)c1C [Example 21, 2-(5-chloro-2-fluorophenyl)-N-(3,4-dimethylisoxazol-5-yl)-7-azaspiro[3.5]nonane-7-carboxamide] | (+) |
| 1340 | 5670 | CCc1cccc(C2CC3(CCN(C(=O)Nc4onc(C)c4C)CC3)C2)c1 [Example 22, N-(3,4-dimethylisoxazol-5-yl)-2-(3-ethylphenyl)-7-azaspiro[3.5]nonane-7-carboxamide] | (−) |
| 1710 | 2820 | Cc1noc(NC(=O)N2CCC3(CC2)CC(F)(c2cccc(OC(F)(F)F)c2)C3)c1C [Example 23, N-(3,4-dimethylisoxazol-5-yl)-2-fluoro-2-[3-(trifluoromethoxy)phenyl]-7-azaspiro[3.5]nonane-7-carboxamide] | (+) |
| 5750 | 12400 | Cn1nnnc1NC(=O)N1CCC2(CC1)CC(c1cccc(C(F)(F)F)c1)C2 [Example 24, N-(1-methyl-1H-tetrazol-5-yl)-2-[3-(trifluoromethyl)phenyl]-7-azaspiro[3.5]nonane-7-carboxamide] | (+) |
| 2340 | 2860 | Cc1noc(NC(=O)N2CCC3(CC2)CC(c2cccc(OCCOc4ccc(Cl)cc4)c2)C3)c1C [Example 25, 2-{3-[2-(4-chlorophenoxy)ethoxy]phenyl}-N-(3,4-dimethylisoxazol-5-yl)-7-azaspiro[3.5]nonane-7-carboxamide] | (+) |
| 2040 | 10200 | Cn1nnnc1NC(=O)N1CCC2(CC1)CC(c1cccc3c1OC(F)(F)O3)C2 [Example 55, 2-(2,2-difluoro-1,3-benzodioxol-4-yl)-N-(1-methyl-1H-tetrazol-5-yl)-7-azaspiro[3.5]nonane-7-carboxamide] |  |
| 1940 | 10300 | Cn1nnnc1NC(=O)N1CCC2(CC1)CC(c1cccc(F)c1F)C2 [Example 56, 2-(2,3-difluorophenyl)-N-(1-methyl-1H-tetrazol-5-yl)-7-azaspiro[3.5]nonane-7-carboxamide] |  |
